Key:
[1] = tested on: 2 kidney, 1-clip Goldblatt hypertensive rat (RHR); experiment: blood pressure lowering in conscious 2 kidney, 1-clip Goldblatt (renal) hypertensive rats (RHR), AHP3; format: in vivo; settings: 30 mg/kg ip, read-out: Max % decrease in blood pressure, 30 mg/kg ip in RHR
Experimental: Thus, for example, compounds of formula I when administered intraperitoneally or orally to 2 kidney, 1-clip Goldblatt (renal) hypertensive rats (See S Sen, et al., "Role of Renin-Angiotensin System in Chronic Renal Hypertensive Rats," Hypertension 1:427-434 (1979) and Clin. Soc. 57:53-62, 1979, "Antihypertensive Effect of Prolonged Blockade of Angiotensin Formation in Benign and Malignant, one-and two-kidney Goldblatt Hypertensive Rats".) at doses in the range of 1-100 mg/kg cause 10-80 mmHg drops in blood pressure. […] Angiotensin binding inhibition activity and blood pressure lowering activity in renal hypertensive rats of the optimally substituted examples of formula I are listed in Table 1. Blood pressure lowering activity in spontaneously hypertensive rats of optimally substituted examples of formula II are listed in Table 2.
[…] EVALUATION (AHP3)
A Method for the Direct Monitoring of Aortic Blood Pressure and Heart Rate from Conscious Rats
The continuous monitoring of pulsatile blood pressure (BP) from unrestrained conscious rats surgically equipped with polyethylene cannulas was accomplished by means of a computer assisted data capture scheme (CADCS). The basic elements of the methodology are the cannulation procedure and the CADCS.
Rats were anesthetized with Telazol (1:1 tiletamine HCl and zolazepam HCl); 20-40 mg/kg IM and the descending aorta exposed via a midline incision. Cannulas fabricated from polyethylene tubing were inserted into the aorta via an undersized puncture hole below the renal arteries. The puncture hole was made by a 23 G disposable needle with a section of the aorta clamped off above and below the puncture site. The cannulas, consisting of a PE100 (0.86 mm ID) body and a PE50 (0.58 mm ID) tip, were attached to a trocar, inserted through the psoas muscle, and passed subcutaneously along the midline of the back and externalized between the ears. The cannulas were anchored to the psoas muscle and between the scalulae (3-0 green braided suture). The midline incision was closed in two steps (muscle first, skin second) using continuous over-and-over sutures (4-0 chronic). Each rat was then given penicillin 30,000 units subcutaneously (Penicillin G Procaine Sterile Suspension).
The rats were fitted with a harness-springswivel assembly designed to protect the cannula and to provide the rat relative freedom of movement. The harnesses were fabricated from nylon hook and loop tape cemented to a metal plate to which spring wires (18-8 stainless steel), were attached to brass swivels. Each polyethylene cannula was channeled through a spring and connected through a swivel to a pressure transducer (Model P23Gb; Statham Instruments; Hato Rey, Puerto Rico) and an infusion pump (Sage model 234-7; Orion Research, Cambridge, Mass.) by means of PE100 tubing. While on test, each rat received a continuous slow infusion of heparinized saline solution (approximately 0.40 ml or 40 units of heparin per 24 hr period) to prevent clot formation. Additional "flushes" of the cannula with heparinized saline were carried out when the aortic pulse pressure (systolic minus diastolic) was less than 25 mm Hg.
The pulsatile blood pressure of each of 32 rats was monitored continuously by two signal conditioning units (Gould, Clev., Ohio). The signals from these units were monitored and digital data for mean, systolic, and diastolic blood pressures as well as for heart rate were calculated every 5 min by two in-laboratory computers (Hewlett Packard, Cupertino, Calif.). These in-laboratory computers have the capacity to store 32 days of this 5 min data. Communication with the mainframe research computer (IBM 3083) from the two inlaboratory computers allowed for data analysis and report generation. […]

[2] = target: angiotensin II binding to rat adrenal receptor preparations; experiment: inhibition of 125I-angiotensin II binding to rat adrenal receptor preparations

Row | SMILES | change in vivo at 30 mg/kg [1] [%] | IC50 [2] [µM]
1 | COc1ccc(Cn2cnc3c2CC(C(=O)O)N(C(=O)C(c2ccccc2)c2ccccc2)C3)cc1C (centres unmarked) [Example 19, 1-(3-Methyl-4-methoxyphenyl)methyl-5-diphenylacetyl-4,5,6,7-tetrahydro-1H-imidazo[4,5-c]-pyridine-6-carboxylic acid] | -14 | 0.07
2 | O=C(O)[C@@H]1Cc2c(ncn2Cc2ccccc2)CN1C(=O)C(c1ccc(Cl)cc1)c1ccc(Cl)cc1 [Example 22, (S)-5-[bis(4-chlorophenyl)acetyl]-4,5,6,7-tetrahydro-1-(phenylmethyl)-1H-imidazo[4,5-c]pyridine-6-carboxylic acid] | -27 | 6.8
3 | O=C(O)C1Cc2c(ncn2CCC23CC4CC(CC(C4)C2)C3)CN1C(=O)C(c1ccccc1)c1ccccc1 (centres unmarked) [Example 2, 1-(2-(1-Adamantyl)ethyl)-5-diphenylacetyl-4,5,6,7-tetrahydro-1H-imidazo[4,5-c]pyridine-6-carboxylic acid] | -26 | 0.1
4 | COc1ccc(Cn2cnc3c2C[C@@H](C(=O)O)N(C(=O)C(c2ccccc2)C2CCCC2)C3)cc1C (stereo partly drawn) [Example 24, (S)-5-(cyclopentylphenylacetyl)-4,5,6,7-tetrahydro-1-[(4-methoxy-3-methylphenyl)methyl]-1H-imidazo-[4,5-c]pyridine-6-carboxylic acid] | -16 | 0.07

Source: patent US4812462A, “4,5,6,7-tetrahydro-1H-imidazo[4,5-c]pyridine-6-carboxylic acid analogs having antihypertensive activity” (Warner-Lambert Company, priority 1986, dated 1989)
